ChEMBL document CHEMBL1201862, “PubChem BioAssay data set” (2004)
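Step 1: Grow cells in 96-well plates. Step 2: Expose to compound for 48 hours at 5 concentrations. Step 3: Interpolate endpoints linearly; if unreached, use highest concentration. GI50 marks 50% less growth.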 Activity calls are given as the source filed them. No stated cut-off is given here; in the data, active = GI50 up to about 1.1 µM and inactive = higher.

Key:
Test in all cases: growth of human tumour cells (NCI), 48 h
786-0 = tested on: 786-0
A498 = tested on: A498
A549 = tested on: A549
BT-549 = tested on: BT-549
CCRF-CEM = tested on: CCRF-CEM
COLO 205 = tested on: COLO 205
HCT-116 = tested on: HCT-116
HL-60 = tested on: HL-60
HOP-92 = tested on: HOP-92
IGROV-1 = tested on: IGROV-1
KM12 = tested on: KM12
MDA-MB-231 = tested on: MDA-MB-231
MDA-MB-435 = tested on: MDA-MB-435
NCI-H460 = tested on: NCI-H460
OVCAR-5 = tested on: OVCAR-5
RXF 393 = tested on: RXF 393
SF-268 = tested on: SF-268
SF-539 = tested on: SF-539
SK-MEL-28 = tested on: SK-MEL-28
SK-OV-3 = tested on: SK-OV-3

Compound | GI50 (786-0) | GI50 (A498) | GI50 (A549) | GI50 (BT-549) | GI50 (CCRF-CEM) | GI50 (COLO 205) | GI50 (HCT-116) | GI50 (HL-60) | GI50 (HOP-92) | GI50 (IGROV-1) | GI50 (KM12) | GI50 (MDA-MB-231) | GI50 (MDA-MB-435) | GI50 (NCI-H460) | GI50 (OVCAR-5) | GI50 (RXF 393) | GI50 (SF-268) | GI50 (SF-539) | GI50 (SK-MEL-28) | GI50 (SK-OV-3)
Cc1[nH]c2ccccc2c1-c1cc(-c2cc(-c3c(C)[nH]c4ccccc34)on2)no1 | 92 µM (inactive) | > 100 µM (inactive) | > 100 µM (inactive) | > 100 µM (inactive) | 34.2 µM (inactive) | 84.1 µM (inactive) | 44.3 µM (inactive) | 34.5 µM (inactive) | 83.8 µM (inactive) | 56.8 µM (inactive) | 42.6 µM (inactive) | > 100 µM (inactive) | 25.8 µM (inactive) | 42 µM (inactive) | > 100 µM (inactive) | 37.7 µM (inactive) | 52.7 µM (inactive) | 49 µM (inactive) | > 100 µM (inactive) | 77.6 µM (inactive)
O=S(=O)(O)c1ccc2c(/N=N/c3ccccc3)c(O)c(S(=O)(=O)O)cc2c1 | > 100 µM (inactive) | > 100 µM (inactive) | > 100 µM (inactive) | > 100 µM (inactive) | > 100 µM (inactive) | > 100 µM (inactive) | > 100 µM (inactive) | > 100 µM (inactive) | > 100 µM (inactive) | > 100 µM (inactive) | > 100 µM (inactive) | > 100 µM (inactive) | > 100 µM (inactive) | > 100 µM (inactive) | > 100 µM (inactive) | > 100 µM (inactive) | > 100 µM (inactive) | > 100 µM (inactive) | > 100 µM (inactive) | > 100 µM (inactive)
Cc1ccc(Nc2n[nH]c(=S)s2)cc1C | > 100 µM (inactive) | 58.7 µM (inactive) | 79.4 µM (inactive) | > 100 µM (inactive) | 72.9 µM (inactive) | 66.1 µM (inactive) | > 100 µM (inactive) | 71.1 µM (inactive) | > 100 µM (inactive) | > 100 µM (inactive) | 78.5 µM (inactive) | > 100 µM (inactive) | 53.5 µM (inactive) | 59 µM (inactive) | > 100 µM (inactive) | > 100 µM (inactive) | > 100 µM (inactive) | > 100 µM (inactive) | 57.9 µM (inactive) | > 100 µM (inactive)
N#Cc1c(Nc2ccccc2)[n+]([O-])c2ccc(Cl)cc2[n+]1[O-] | 5.25 µM (inactive) | 7.69 µM (inactive) | 9.86 µM (inactive) | 3.44 µM (inactive) | 2.92 µM (inactive) | 2.33 µM (inactive) | 3.88 µM (inactive) | 2.01 µM (inactive) | 1.73 µM (inactive) | 1.78 µM (inactive) | 4.36 µM (inactive) | 9.53 µM (inactive) | 8.99 µM (inactive) | 2.42 µM (inactive) | 15.8 µM (inactive) | 9.77 µM (inactive) | 4.38 µM (inactive) | 5.22 µM (inactive) | 12.9 µM (inactive) | 21.2 µM (inactive)
COc1ccc(-c2cc3c(nn2)-c2ccccc2C3=O)cc1 | > 10 µM (inactive) | > 10 µM (inactive) | > 10 µM (inactive) | > 10 µM (inactive) | 6.38 µM (inactive) | > 10 µM (inactive) | 7.71 µM (inactive) | > 10 µM (inactive) | > 10 µM (inactive) | > 10 µM (inactive) | > 10 µM (inactive) | > 10 µM (inactive) | > 10 µM (inactive) | > 10 µM (inactive) | > 10 µM (inactive) | > 10 µM (inactive) | > 10 µM (inactive) | > 10 µM (inactive) | > 10 µM (inactive) | > 10 µM (inactive)
Nc1nc(Cl)cc(NCC2(O)CC(CO)C2)n1 (stereo not given) | > 100 µM (inactive) | > 100 µM (inactive) | > 100 µM (inactive) | > 100 µM (inactive) | > 100 µM (inactive) | > 100 µM (inactive) | > 100 µM (inactive) | > 100 µM (inactive) | > 100 µM (inactive) | > 100 µM (inactive) | > 100 µM (inactive) | > 100 µM (inactive) | > 100 µM (inactive) | > 100 µM (inactive) | > 100 µM (inactive) | > 100 µM (inactive) | > 100 µM (inactive) | > 100 µM (inactive) | > 100 µM (inactive) | > 100 µM (inactive)
CC1=C(C(=O)Nc2ccccc2C)C(c2ccc(C3C(C(=O)Nc4ccccc4C)=C(C)NC(C)=C3C(=O)Nc3ccccc3C)cc2)C(C(=O)Nc2ccccc2C)=C(C)N1 | 3.47 µM (inactive) | 15.5 µM (inactive) | 10.8 µM (inactive) | 2.75 µM (inactive) | 1.95 µM (inactive) | 3.7 µM (inactive) | 2.21 µM (inactive) | 2.53 µM (inactive) | 8.38 µM (inactive) | 3.16 µM (inactive) | 2.16 µM (inactive) | 2.29 µM (inactive) | 4.32 µM (inactive) | 9.04 µM (inactive) | 14.1 µM (inactive) | 4.31 µM (inactive) | 2.58 µM (inactive) | 4.44 µM (inactive) | 2.04 µM (inactive) | 15.3 µM (inactive)
Cc1cn(CCCCCCOC(=O)NC(CCCNC(=N)N)C(=O)O)c(=O)[nH]c1=O (stereo not given) | > 100 µM (inactive) | > 100 µM (inactive) | > 100 µM (inactive) | > 100 µM (inactive) | > 100 µM (inactive) | > 100 µM (inactive) | > 100 µM (inactive) | > 100 µM (inactive) | > 100 µM (inactive) | > 100 µM (inactive) | > 100 µM (inactive) | > 100 µM (inactive) | > 100 µM (inactive) | > 100 µM (inactive) | > 100 µM (inactive) | > 100 µM (inactive) | > 100 µM (inactive) | > 100 µM (inactive) | > 100 µM (inactive) | > 100 µM (inactive)
COc1cc2oc(=O)cc(C)c2cc1[N+](=O)[O-] | 17.5 µM (inactive) | 28.4 µM (inactive) | > 90.4 µM (inactive) | 16.7 µM (inactive) | 17.8 µM (inactive) | 23.9 µM (inactive) | 15.3 µM (inactive) | 8.87 µM (inactive) | 17.1 µM (inactive) | 38.9 µM (inactive) | 25.7 µM (inactive) | 22.4 µM (inactive) | 20.1 µM (inactive) | 46.3 µM (inactive) | 28.1 µM (inactive) | 15.1 µM (inactive) | 17.5 µM (inactive) | 23.8 µM (inactive) | 22.6 µM (inactive) | 84.1 µM (inactive)
Cc1ccc(C(=O)NC2C(=O)NC(C(C)C)C(=O)N3CCCC3C(=O)N(C)CC(=O)N(C)C(C(C)C)C(=O)OC2C)c2c1Oc1c(c(C(=O)NC3C(=O)NC(C(C)C)C(=O)N4CCCC4C(=O)N(C)CC(=O)N(C)C(C(C)C)C(=O)OC3C)c3nc(-c4ccccc4)c(=O)oc3c1C)N2 (stereo not given) | < 0.001 µM (active) | < 0.001 µM (active) | < 0.001 µM (active) | < 0.001 µM (active) | 0.00255 µM (active) | 0.0039 µM (active) | < 0.001 µM (active) | 0.00995 µM (active) | 0.016 µM (active) | < 0.001 µM (active) | < 0.001 µM (active) | 0.00762 µM (active) | 0.00154 µM (active) | < 0.001 µM (active) | 0.00216 µM (active) | 0.00161 µM (active) | < 0.001 µM (active) | < 0.001 µM (active) | < 0.001 µM (active) | 0.00159 µM (active)
Cc1nc(O)nc(N/N=C/c2ccc(Cl)c(Cl)c2)c1C(=O)Nc1ccc(Cl)c(Cl)c1 | 10.3 µM (inactive) | 3.12 µM (inactive) | 14 µM (inactive) | 19.5 µM (inactive) | 8.65 µM (inactive) | 13.1 µM (inactive) | 6.75 µM (inactive) | 45.8 µM (inactive) | 17.9 µM (inactive) | 13.8 µM (inactive) | 6.49 µM (inactive) | 2.44 µM (inactive) | 11.1 µM (inactive) | 18.4 µM (inactive) | 26.5 µM (inactive) | 15.2 µM (inactive) | 10.5 µM (inactive) | 15.7 µM (inactive) | 8.97 µM (inactive) | 14 µM (inactive)
COc1cc(-c2c3c([nH]c(=O)c2C#N)-c2cc([N+](=O)[O-])ccc2CCC3)cc(OC)c1OC | 24.7 µM (inactive) | 14.2 µM (inactive) | 23.8 µM (inactive) | 17.5 µM (inactive) | 21.7 µM (inactive) | 22 µM (inactive) | 18.8 µM (inactive) | 21.4 µM (inactive) | 25.4 µM (inactive) | 33.1 µM (inactive) | 20.2 µM (inactive) | 19.9 µM (inactive) | 25.9 µM (inactive) | 16.8 µM (inactive) | 23.7 µM (inactive) | 22.1 µM (inactive) | 24.2 µM (inactive) | 24.3 µM (inactive) | 43.5 µM (inactive) | 15.5 µM (inactive)
CN1CCN(CC(=O)Nc2cccc3ccccc23)CC1 | > 100 µM (inactive) | > 100 µM (inactive) | > 100 µM (inactive) | > 100 µM (inactive) | > 100 µM (inactive) | > 100 µM (inactive) | > 100 µM (inactive) | > 100 µM (inactive) | > 100 µM (inactive) | > 100 µM (inactive) | > 100 µM (inactive) | > 100 µM (inactive) | > 100 µM (inactive) | > 100 µM (inactive) | > 100 µM (inactive) | > 100 µM (inactive) | > 100 µM (inactive) | > 100 µM (inactive) | > 100 µM (inactive) | > 100 µM (inactive)
